Series [1] addresses T1, C-type lectin domain family 4 member E (Homo sapiens) (UniProt Q9ULY5).
T1 sequence (whole entry): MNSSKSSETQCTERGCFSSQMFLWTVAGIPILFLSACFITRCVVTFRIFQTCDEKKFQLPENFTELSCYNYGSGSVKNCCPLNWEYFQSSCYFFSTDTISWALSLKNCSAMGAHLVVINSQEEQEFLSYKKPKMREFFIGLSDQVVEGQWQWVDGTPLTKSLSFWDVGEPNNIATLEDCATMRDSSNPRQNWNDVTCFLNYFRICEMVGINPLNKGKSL
Briefly: Induction of human Mincle expressed in NFAT-GFP reporter cells assessed as induction of mincle-mediated NFAT signaling activity by measuring stimulation of GFP reporter activity at 0.001 to 0.1 nmol/well incubated for 18 hrs by flow cytometry. It is filed as cell-based. Particulars: filed as agonist, dose 0.001-0.1 nmol. On the technique in general: A flow cytometer gives signals particle by particle.

In series [2] the target is T2, C-type lectin domain family 4 member E (Mus musculus) (UniProt Q9R0Q8).
T2 sequence (whole entry): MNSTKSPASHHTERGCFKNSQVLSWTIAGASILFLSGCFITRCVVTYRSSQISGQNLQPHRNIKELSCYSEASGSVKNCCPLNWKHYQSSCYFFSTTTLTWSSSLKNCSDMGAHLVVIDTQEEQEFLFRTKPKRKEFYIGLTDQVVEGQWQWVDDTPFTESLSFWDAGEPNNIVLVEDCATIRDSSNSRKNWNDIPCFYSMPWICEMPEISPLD
Briefly: Induction of mouse Mincle expressed in NFAT-GFP reporter cells assessed as induction of mincle-mediated NFAT signaling activity by measuring stimulation of GFP reporter activity at 0.001 to 0.1 nmol/well incubated for 18 hrs by flow cytometry. It is filed as cell-based. As to conditions: filed as agonist, dose 0.001-0.1 nmol.

Series [3] can be described thus: Solubility of the compound in 1 mM DMSO. Format: physicochemical.
Series [4] addresses T1, C-type lectin domain family 4 member E (Homo sapiens). Briefly: Induction of human Mincle expressed in NFAT-GFP reporter cells assessed as induction of mincle-mediated NFAT signaling activity by measuring stimulation of GFP reporter activity at 0.1 nmol/well incubated for 18 hrs by flow cytometry. It is filed as cell-based. As to conditions: filed as agonist.
For series [5], the target named is T2, C-type lectin domain family 4 member E (Mus musculus). The experiment in a line: Induction of mouse Mincle expressed in NFAT-GFP reporter cells assessed as induction of mincle-mediated NFAT signaling activity by measuring stimulation of GFP reporter activity at 0.1 nmol/well incubated for 18 hrs by flow cytometry. It is filed as cell-based. Particulars: filed as agonist.

Series [6] in a line: Solubility of the compound in 8 mM DMSO. Particulars: 8000 µM. It is filed as physicochemical.

Active and inactive are the calls of the source. The rule behind the calls is not given here.

Consider `CCCCCCCCCCCCC(=O)CCCCCCCCC(=O)OC[C@@H]1O[C@@H](O[C@H]2O[C@H](COC(=O)CCCCCCCCC(=O)CCCCCCCCCCCC)[C@@H](O)[C@H](O)[C@H]2O)[C@@H](O)[C@H](O)[C@H]1O`, for which the outcome in series [1] and in series [2] was Active.
Consider `CCCCCCCCCCC(O)CCCCCCC(=O)OC[C@@H]1O[C@@H](O[C@H]2O[C@H](COC(=O)CCCCCCC(O)CCCCCCCCCC)[C@@H](O)[C@H](O)[C@H]2O)[C@@H](O)[C@H](O)[C@H]1O` (some centres undefined), for which the result in series [1] and in series [2] was Active.
For `CCCCCCCCCCCCC(O)CCCCCCCCC(=O)OC[C@@H]1O[C@@H](O[C@H]2O[C@H](COC(=O)CCCCCCCCC(O)CCCCCCCCCCCC)[C@@H](O)[C@H](O)[C@H]2O)[C@@H](O)[C@H](O)[C@H]1O` (some centres undefined), the solubility entry in series [3] is listed as “Soluble”. For the same molecule, the result in series [1] and in series [2] was Active.
`CCCCCCCCCCCCCCCCCCCCCCCC(C(=O)OC[C@@H]1O[C@@H](O[C@H]2O[C@H](COC(=O)C(CCCCCCCCCCCCCCCCCCCCCCC)C(O)CCCCCCCCCCCCCCCCCC3CC3CCCCCCCCCCCCCCC3CC3CCCCCCCCCCCCCCCCCC)[C@@H](O)[C@H](O)[C@H]2O)[C@@H](O)[C@H](O)[C@H]1O)C(O)CCCCCCCCCCCCCCCCCC1CC1CCCCCCCCCCCCCCC1CC1CCCCCCCCCCCCCCCCCC` (some centres undefined): the result in series [4] and in series [5] was Active.
As to `CCCCCCCCC(N)CCCCCCCCC(=O)OC[C@@H]1O[C@@H](O[C@H]2O[C@H](COC(=O)CCCCCCCCC(N)CCCCCCCC)[C@@H](O)[C@H](O)[C@H]2O)[C@@H](O)[C@H](O)[C@H]1O` (some centres undefined), the solubility entry in series [3] was “Soluble”. Further, the outcome in series [1] and in series [2] was Active.
As to `CCCCCCC(O)CCCCCCCCCCC(=O)OC[C@@H]1O[C@@H](O[C@H]2O[C@H](COC(=O)CCCCCCCCCCC(O)CCCCCC)[C@@H](O)[C@H](O)[C@H]2O)[C@@H](O)[C@H](O)[C@H]1O` (some centres undefined), the result in series [1] and in series [2] was Active.
On to `CCCCCCCCC(=O)CCCCCCCCC(=O)OC[C@@H]1O[C@@H](O[C@H]2O[C@H](COC(=O)CCCCCCCCC(=O)CCCCCCCC)[C@@H](O)[C@H](O)[C@H]2O)[C@@H](O)[C@H](O)[C@H]1O`, for which the outcome in series [1] and in series [2] was Active.
Take `CCCCCCC(=O)CCCCCCCCCCC(=O)OC[C@@H]1O[C@@H](O[C@H]2O[C@H](COC(=O)CCCCCCCCCCC(=O)CCCCCC)[C@@H](O)[C@H](O)[C@H]2O)[C@@H](O)[C@H](O)[C@H]1O`: the outcome in series [1] and in series [2] was Active.
As to `CCCCCCCC(O)CCCCCCCCCC(=O)OC[C@@H]1O[C@@H](O[C@H]2O[C@H](COC(=O)CCCCCCCCCC(O)CCCCCCC)[C@@H](O)[C@H](O)[C@H]2O)[C@@H](O)[C@H](O)[C@H]1O` (some centres undefined), the result in series [1] and in series [2] was Active.
For the molecule `CCCCCCCCC(O)CCCCCCCCC(=O)OC[C@@H]1O[C@@H](O[C@H]2O[C@H](COC(=O)CCCCCCCCC(O)CCCCCCCC)[C@@H](O)[C@H](O)[C@H]2O)[C@@H](O)[C@H](O)[C@H]1O` (some centres undefined), in series [6], the solubility entry is “Soluble”. The result in series [4] and in series [5] was Active.
For `CCCCCCC(N)CCCCCCCCCCC(=O)OC[C@@H]1O[C@@H](O[C@H]2O[C@H](COC(=O)CCCCCCCCCCC(N)CCCCCC)[C@@H](O)[C@H](O)[C@H]2O)[C@@H](O)[C@H](O)[C@H]1O` (some centres undefined), the outcome in series [1] and in series [2] was Active.
As for `CCCCCCCCCCCCCCCCCC(=O)OC[C@@H]1O[C@@H](O[C@H]2O[C@H](COC(=O)CCCCCCCCCCCCCCCCC)[C@@H](O)[C@H](O)[C@H]2O)[C@@H](O)[C@H](O)[C@H]1O`, the result in series [4] and in series [5] was Active.
In the case of `CCCCCCCCCCCCC(N)CCCCCCCCC(=O)OC[C@@H]1O[C@@H](O[C@H]2O[C@H](COC(=O)CCCCCCCCC(N)CCCCCCCCCCCC)[C@@H](O)[C@H](O)[C@H]2O)[C@@H](O)[C@H](O)[C@H]1O` (some centres undefined), the result in series [1] and in series [2] was Active.

The record behind these values is ChEMBL document CHEMBL5236582, “Trehalose diesters containing a polar functional group-modified lipid moiety: Synthesis and evaluation of Mincle-mediated signaling activity” (Bioorg Med Chem, 2022).
